# Data published in patent US9409905B2, “Antibacterial compounds and methods for use” (PTC THERAPEUTICS, INC., priority 2011, dated 2016).
# Legend:
# [1] = test system: Escherichia coli (E. coli) BAS849; test: Antibacterial activity, microbroth dilution MIC (Table 1); type: cell-based; conditions: microbroth dilution, super sensitive Gram-negative E. coli BAS849, read-out: MIC, BAS849
# Summary of the method: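 Growth inhibition by microbroth dilution. MIC = lowest μg/mL with no visible growth. Strain 25922 is the control Gram-negative; BAS849 is hypersensitive.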
# [2] = test system: Staphylococcus aureus (S. aureus) 29213; test: as above; type: cell-based; conditions: microbroth dilution, Gram-positive S. aureus 29213, read-out: MIC, 29213
# Summary of the method: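 Values are MICs (μg/mL): the smallest drug amount at which macroscopically visible bacterial growth is absent under assay conditions, from a microdilution method in broth.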
# E. coli 25922 = test: as above; type: cell-based, Escherichia coli; conditions: Escherichia coli; microbroth dilution; control Gram-negative E. coli 25922 strain; read-out: MIC, 25922
# Summary of the method: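 Lowest concentration stopping macroscopically visible growth under test conditions, by broth microdilution, defines the MIC (μg/mL).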
# E. coli LZ3111 = test: Antibacterial activity, MIC, quinolone resistant strain (Table 2); type: cell-based; conditions: Escherichia coli, LZ3111, read-out: MIC LZ3111
# Summary of the method: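 MIC values (μg/mL) came from a microbroth dilution assay, scored as the lowest drug concentration at which no growth was visible by eye.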
# E. coli ELZ4000 = test: Antibacterial activity, MIC, multi-drug resistant clinical isolate (Table 3); type: cell-based; conditions: Escherichia coli, ELZ4000, read-out: MIC ELZ4000
# Summary of the method: (§1)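 Compounds were serially diluted in broth microdilution format and growth was scored visually; the MIC is the lowest concentration at which no macroscopically visible growth occurred, expressed in μg/mL.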
# E. coli ELZ4251 = test: as above; type: cell-based; conditions: Escherichia coli
# Summary of the method: as §1
# [3] = test system: Acinetobacter baumannii (A. baumannii) BAA747; test: Antibacterial activity, MIC (Table 4); type: cell-based; conditions: A. baumannii BAA747, read-out: MIC, BAA747
# Summary of the method: (§2)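 Values are MICs in μg/mL, read as the lowest compound concentration at which no growth is visible by eye. They come from a microbroth dilution method.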
# [4] = test system: Klebsiella pneumoniae (K. pneumoniae) 35657; test: Antibacterial activity, MIC (Table 4); type: cell-based; conditions: K. pneumoniae 35657, read-out: MIC, 35657
# Summary of the method: as §2
# A. baumannii MXX2240 = test: Antibacterial activity, MIC, resistant strain (Table 4); type: cell-based; conditions: Acinetobacter baumannii, MXX2240; resistant A. baumannii MMX2240, multi-drug resistant clinical isolate; read-out: MIC, MMX2240
# Summary of the method: as §2
# K. pneumoniae MXX1232 = test: as above; type: cell-based; conditions: Klebsiella pneumoniae, MXX1232; resistant K. pneumoniae MMX1232, multi-drug resistant clinical isolate; read-out: MIC, MMX1232
# Summary of the method: as §2
# [5] = test system: Pseudomonas aeruginosa (P. aeruginosa) 27853; test: Antibacterial activity, MIC (Table 5); type: cell-based; conditions: P. aeruginosa 27853, read-out: MIC, 27853
# Summary of the method: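 Values are MICs in μg/mL, read as the lowest concentration at which no growth is visible by eye. They were determined by a microbroth dilution method.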
# [6] = test system: Haemophilus influenzae (H. influenzae) 49247; test: Antibacterial activity, MIC (Table 6); type: cell-based
# Description: (§3) The antibacterial activity from a microbroth dilution method may be presented as the minimum inhibitory concentration (MIC in μg/mL). The MIC value is the lowest concentration of drug which prevents macroscopically visible growth under test conditions.
# (§4) Antibacterial activity of test compounds against the Gram-negative bacteria Haemophilus influenzae (H. influenzae) 49247 is shown in Table 6, Moraxella catarrhalis (M. catarrhalis) 25238 is shown in Table 7 and Neisseria meningitidis (N. meningitidis) 13090 is shown in Table 8.
# [7] = test system: Moraxella catarrhalis (M. catarrhalis) 25238; test: Antibacterial activity, MIC (Table 7); type: cell-based
# Description: as §3, §4
# [8] = test system: Neisseria meningitidis (N. meningitidis) 13090; test: Antibacterial activity, MIC (Table 8); type: cell-based
# Description: as §3, §4
Structure (SMILES),MIC [1] [mg/L],MIC [2] [mg/L],MIC (E. coli 25922) [mg/L],MIC (E. coli LZ3111) [mg/L],MIC (E. coli ELZ4000) [mg/L],MIC (E. coli ELZ4251) [mg/L],MIC [3] [mg/L],MIC [4] [mg/L],MIC (A. baumannii MXX2240) [mg/L],MIC (K. pneumoniae MXX1232) [mg/L],MIC [5] [mg/L],MIC [6] [mg/L],MIC [7] [mg/L],MIC [8] [mg/L]
"CCc1c(-c2ccc3c(c2)cc(CNCC2CCN(C)CC2)n3C)[nH]c(=O)c(C(=O)O)c1O.Cl.Cl [Cpd 234, 5-ethyl-4-hydroxy-6-(1-methyl-2-((((1-methylpiperidin-4-yl)methyl)amino)methyl)-1H-indol-5-yl)-2-oxo-1,2-dihydropyridine-3-carboxylic acid dihydrochloride]",< 1,12.5 to 150,1 to 3.5,1 to 3.5,12.5 to 150,12.5 to 150,12.5 to 150,1 to 3.5,12.5 to 150,12.5 to 150,12.5 to 150,1 to 3.5,3.5 to 12.5,1 to 3.5
"CCc1c(-c2ccc3c(c2)cc(CN(C)C2CCC2)n3C)[nH]c(=O)c(C(=O)O)c1O.Cl [Cpd 209, 6-(2-((cyclobutyl(methyl)amino)methyl)-1-methyl-1H-indol-5-yl)-5-ethyl-4-hydroxy-2-oxo-1,2-dihydropyridine-3-carboxylic acid hydrochloride]",< 1,3.5 to 12.5,< 1,3.5 to 12.5,12.5 to 150,12.5 to 150,1 to 3.5,1 to 3.5,3.5 to 12.5,12.5 to 150,12.5 to 150,< 1,< 1,< 1
"CCc1c(-c2ccc3c(c2)cc(CN)n3C)[nH]c(=O)c(C(=O)O)c1O [Cpd 290, 6-(2-(aminomethyl)-1-methyl-1H-indol-5-yl)-5-ethyl-4-hydroxy-2-oxo-1,2-dihydropyridine-3-carboxylic acid]",< 1,3.5 to 12.5,< 1,1 to 3.5,3.5 to 12.5,3.5 to 12.5,1 to 3.5,3.5 to 12.5,12.5 to 150,12.5 to 150,1 to 3.5,1 to 3.5,1 to 3.5,< 1
"CCc1c(-c2ccc3c(c2)cc(CNCC2CCCCN2C)n3C)[nH]c(=O)c(C(=O)O)c1O.Cl.Cl (stereo not drawn) [Cpd 233, 5-ethyl-4-hydroxy-6-(1-methyl-2-((((1-methylpiperidin-2-yl)methyl)amino)methyl)-1H-indol-5-yl)-2-oxo-1,2-dihydropyridine-3-carboxylic acid dihydrochloride]",< 1,12.5 to 150,1 to 3.5,1 to 3.5,12.5 to 150,12.5 to 150,12.5 to 150,1 to 3.5,12.5 to 150,12.5 to 150,12.5 to 150,3.5 to 12.5,3.5 to 12.5,1 to 3.5
"CCc1c(-c2ccc3c(c2)cc(CN2CCNCC2)n3C)[nH]c(=O)c(C(=O)O)c1O [Cpd 171, 5-ethyl-4-hydroxy-6-(1-methyl-2-(piperazin-1-ylmethyl)-1H-indol-5-yl)-2-oxo-1,2-dihydropyridine-3-carboxylic acid]",< 1,12.5 to 150,1 to 3.5,1 to 3.5,12.5 to 150,12.5 to 150,12.5 to 150,1 to 3.5,12.5 to 150,12.5 to 150,12.5 to 150,1 to 3.5,3.5 to 12.5,1 to 3.5
"CCc1c(-c2ccc3c(c2)cc(CNCc2ccc(OC)cc2)n3C)[nH]c(=O)c(C(=O)O)c1O [Cpd 291, 5-ethyl-4-hydroxy-6-(2-((4-methoxybenzylamino)methyl)-1-methyl-1H-indol-5-yl)-2-oxo-1,2-dihydropyridine-3-carboxylic acid]",< 1,3.5 to 12.5,< 1,1 to 3.5,12.5 to 150,12.5 to 150,1 to 3.5,3.5 to 12.5,1 to 3.5,12.5 to 150,12.5 to 150,< 1,< 1,< 1
